Legend:
Type in all cases: in vivo
[1] = system: Alopecurus myosuroides; experiment: Pre-emergence herbicidal activity against ALOMY; conditions: dosage 80 g/ha, scored visually after about 3 weeks vs untreated controls
In short: (§1)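 Visual damage score, in percent relative to untreated controls, taken about 3 weeks after soil-surface application. Compounds were applied as WP or EC in water with 0.5% additive at 600 l/ha onto soil covering sown seeds, then kept in a greenhouse.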

[2] = system: Avena fatua; experiment: Pre-emergence herbicidal activity against AVEFA; conditions: dosage 80 g/ha, scored visually after about 3 weeks vs untreated controls
In short: as §1

[3] = system: Echinochloa crus-galli; experiment: Pre-emergence herbicidal activity against ECHCG; conditions: dosage 80 g/ha, scored visually after about 3 weeks vs untreated controls
From the text: (§2) 1. Pre-emergence herbicidal action against harmful plants and crop plant compatibility Seeds of monocotyledonous and dicotyledonous weed plants and crop plants are placed in plastic or wood fiber pots and covered with soil. The compounds of the invention, formulated in the form of wettable powders (WP) or as emulsion concentrates (EC), are then applied onto the surface of the covering soil as aqueous suspension or emulsion with addition of 0.5% additive at a water application rate of 600 l/ha (converted). After the treatment, the pots are placed in a greenhouse and kept under good growth conditions for the trial plants. After about 3 weeks, the effect of the preparations is scored visually in comparison with untreated controls as percentages. For example, 100% activity=the plants have died, 0% activity=like control plants. [table]

[4] = system: Lolium rigidum; experiment: Pre-emergence herbicidal activity against LOLRI; conditions: dosage 80 g/ha, scored visually after about 3 weeks vs untreated controls
In short: as §1

[5] = system: Setaria viridis; experiment: Pre-emergence herbicidal activity against SETVI; conditions: dosage 80 g/ha, scored visually after about 3 weeks vs untreated controls
In short: as §1

[6] = system: Amaranthus retroflexus; experiment: Pre-emergence herbicidal activity against AMARE; conditions: dosage 80 g/ha, scored visually after about 3 weeks vs untreated controls
In short: as §1

[7] = system: Pharbitis purpurea; experiment: Pre-emergence herbicidal activity against PHBPU; conditions: dosage 80 g/ha, scored visually after about 3 weeks vs untreated controls
From the text: as §2

[8] = system: Polygonum convolvulus; experiment: Pre-emergence herbicidal activity against POLCO; conditions: dosage 80 g/ha, scored visually after about 3 weeks vs untreated controls
In short: as §1

[9] = system: Stellaria media; experiment: Pre-emergence herbicidal activity against STEME; conditions: dosage 80 g/ha, scored visually after about 3 weeks vs untreated controls
In short: as §1

[10] = system: Viola tricolor; experiment: Pre-emergence herbicidal activity against VIOTR; conditions: dosage 80 g/ha, scored visually after about 3 weeks vs untreated controls
In short: as §1

[11] = system: Veronica persica; experiment: Pre-emergence herbicidal activity against VERPE; conditions: dosage 80 g/ha
In short: as §1

[12] = system: Hordeum murinum; experiment: Pre-emergence herbicidal activity against HORMU; conditions: dosage 80 g/ha
In short: as §1

[13] = system: Alopecurus myosuroides; experiment: Post-emergence herbicidal activity against ALOMY; conditions: dosage 320 g/ha, rated visually after about 3 weeks
In short: (§3)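 Visual rating of damage, on a scale where 100% means the plants died and 0% means they look like untreated controls, was made about 3 weeks after treatment. Plants grown in sandy loam pots in the greenhouse were sprayed post-emergence at the one-leaf stage.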

[14] = system: Avena fatua; experiment: Post-emergence herbicidal activity against AVEFA; conditions: dosage 320 g/ha, rated visually after about 3 weeks
In short: as §3

[15] = system: Echinochloa crus-galli; experiment: Post-emergence herbicidal activity against ECHCG; conditions: dosage 320 g/ha, rated visually after about 3 weeks
In short: as §3

[16] = system: Lolium rigidum; experiment: Post-emergence herbicidal activity against LOLRI; conditions: dosage 320 g/ha, rated visually after about 3 weeks
In short: as §3

[17] = system: Setaria viridis; experiment: Post-emergence herbicidal activity against SETVI; conditions: dosage 320 g/ha, rated visually after about 3 weeks
In short: as §3

[18] = system: Abutilon theophrasti; experiment: Post-emergence herbicidal activity against ABUTH; conditions: dosage 320 g/ha, rated visually after about 3 weeks
In short: as §3

[19] = system: Amaranthus retroflexus; experiment: Post-emergence herbicidal activity against AMARE; conditions: dosage 320 g/ha, rated visually after about 3 weeks
In short: as §3

[20] = system: Pharbitis purpurea; experiment: Post-emergence herbicidal activity against PHBPU; conditions: dosage 320 g/ha, rated visually after about 3 weeks
In short: as §3

[21] = system: Polygonum convolvulus; experiment: Post-emergence herbicidal activity against POLCO; conditions: dosage 320 g/ha, rated visually after about 3 weeks
In short: as §3

[22] = system: Stellaria media; experiment: Post-emergence herbicidal activity against STEME; conditions: dosage 320 g/ha, rated visually after about 3 weeks
In short: as §3

[23] = system: Viola tricolor; experiment: Post-emergence herbicidal activity against VIOTR; conditions: dosage 320 g/ha, rated visually after about 3 weeks
In short: as §3

[24] = system: Veronica persica; experiment: Post-emergence herbicidal activity against VERPE; conditions: dosage 320 g/ha, rated visually after about 3 weeks
In short: as §3

[25] = system: Hordeum murinum; experiment: Post-emergence herbicidal activity against HORMU; conditions: dosage 320 g/ha, rated visually after about 3 weeks
In short: as §3

C[C@]1(C(=O)N[C@@H]2CO[C@H](C(=O)NS(C)(=O)=O)C2)CC(c2cc(F)cc(F)c2)=NO1 [Example I-23]
80%: Post-emergence herbicidal activity in % against SETVI [17] | Post-emergence herbicidal activity in % against ABUTH [18] | Post-emergence herbicidal activity in % against AMARE [19] | Post-emergence herbicidal activity in % against PHBPU [20] | Post-emergence herbicidal activity in % against VIOTR [23] | Post-emergence herbicidal activity in % against VERPE [24]
100%: Pre-emergence herbicidal activity in % against ALOMY [1] | Pre-emergence herbicidal activity in % against AVEVA (AVEFA) [2] | Pre-emergence herbicidal activity in % against ECHCG [3] | Pre-emergence herbicidal activity in % against LOLRI [4] | Pre-emergence herbicidal activity in % against SETVI [5] | Pre-emergence herbicidal activity in % against AMARE [6] | Pre-emergence herbicidal activity in % against POLCO [8] | Pre-emergence herbicidal activity in % against STEME [9] | Post-emergence herbicidal activity in % against AVEFA [14] | Post-emergence herbicidal activity in % against LOLRI [16] | Post-emergence herbicidal activity in % against HORMU [25]
90%: Pre-emergence herbicidal activity in % against PHBPU [7] | Pre-emergence herbicidal activity in % against VIOTR [10] | Pre-emergence herbicidal activity in % against VERPE [11] | Pre-emergence herbicidal activity in % against HORMU [12] | Post-emergence herbicidal activity in % against ALOMY [13] | Post-emergence herbicidal activity in % against ECHCG [15] | Post-emergence herbicidal activity in % against POLCO [21] | Post-emergence herbicidal activity in % against STEME [22]

CONC(=O)[C@@H]1C[C@H](NC(=O)[C@@]2(C)CC(c3cc(F)cc(F)c3)=NO2)CO1 [Example I-24]
90%: Pre-emergence herbicidal activity in % against ECHCG [3] | Pre-emergence herbicidal activity in % against PHBPU [7] | Pre-emergence herbicidal activity in % against POLCO [8] | Pre-emergence herbicidal activity in % against STEME [9] | Pre-emergence herbicidal activity in % against VIOTR [10] | Pre-emergence herbicidal activity in % against VERPE [11] | Post-emergence herbicidal activity in % against PHBPU [20] | Post-emergence herbicidal activity in % against VIOTR [23]
100%: Pre-emergence herbicidal activity in % against ALOMY [1] | Pre-emergence herbicidal activity in % against AVEVA (AVEFA) [2] | Pre-emergence herbicidal activity in % against LOLRI [4] | Pre-emergence herbicidal activity in % against SETVI [5] | Pre-emergence herbicidal activity in % against AMARE [6] | Pre-emergence herbicidal activity in % against HORMU [12] | Post-emergence herbicidal activity in % against ALOMY [13] | Post-emergence herbicidal activity in % against AVEFA [14] | Post-emergence herbicidal activity in % against ECHCG [15] | Post-emergence herbicidal activity in % against LOLRI [16] | Post-emergence herbicidal activity in % against STEME [22] | Post-emergence herbicidal activity in % against HORMU [25]
80%: Post-emergence herbicidal activity in % against SETVI [17] | Post-emergence herbicidal activity in % against ABUTH [18] | Post-emergence herbicidal activity in % against AMARE [19] | Post-emergence herbicidal activity in % against POLCO [21] | Post-emergence herbicidal activity in % against VERPE [24]

Source: US11613522B2, “Herbicidally active 3-phenylisoxazoline-5-carboxamides of tetrahydro- and dihydrofurancarboxamides” (BAYER AKTIENGESELLSCHAFT, priority 2017, dated 2023)
